Where a name gives a salt, the structure may show the parent alone. Read-outs that look alike come from different tables or passages of the source.
Legend:
[1] = system: male Wista rats (aconitine); experiment: aconitine infusion in rats, heart rhythm disruption (Raschak); assay type: in vivo; details: 1/20th of the LD50, concurrent aconitine infusion, time difference vs control
Experimental: To determine the influence of the active ingredient on male Wista rats (weighing 280 to 350 g), infusion with aconitine according to the method of Raschak is carried out (M. Raschak, Arzneim. Forschung (Drug Research) 25 (4) (1975) pp. 639-641). The results are given as the difference (that is, the difference in time as Δ%) between the active substance and a control sample in bringing about a disruption of heart rhythms (extrasystolic (ES), ventricular tachicardiea (VT), chamber flutter (KF)). In the control sample the active ingredient is replaced by a vehicle such as isotonic NaCl-solution or solution medium. The administration of the active ingredient is in a dosage of 1/20th of the LD50 and a constant concurrent infusion per unit of time of aconitine.

male NMRI-mice [2] = experiment: minimum symptom dose (Campbell and Richter); assay type: in vivo; design: key: (*): symptoms already indicating toxic area; details: i.p., changes in behavior in 2 out of 3 mice
Experimental: The minimum symptom dose is determined in male NMRI-mice (body weight range 18-22 g) according to the procedure of Campbell and Richter (see D. E. S. Campbell and W. Richter, Acta Pharmacol. Toxicol. 25 (1967), pp. 345-363). The minimum symptom dose is defined as that dose in μmol/kg which after i.p. administration causes changes in behavior in 2 out of 3 mice. The minimum symptom dose is a measure for evaluations undesirable side effects.

isolated left atria = experiment: functional refractory period (FRP) and contraction force (CF) in isolated left atria, double stimulus method of Govier; design: species or system female guinea pigs; details: for ratio between contraction force-reducing dose and functional refractory period-prolonging dose: CF/FRP, indication of therapeutic range, 18 min; for EC (FRP prolonged to 125%) / IC25: Cavia porcellus, 0.3 h, isolated left atria of guinea pig, 18 minutes after application; for EC (FRP prolonged to 125%): read-out: concentration prolonging functional refractory period (FRP) to 125% of starting value; for IC25: read-out: concentration reducing contraction force (CF) to 75% of starting value
Experimental: The prolongation of the functional refractory period (FRP) and the contraction force (CF) in the isolated left atria of female guinea pigs (albinopirbright-white guinea pigs, body weight range 300-400 g) are determined according to the double stimulus method of Govier (see W. C. Govier, J. Pharmakol, Exp. Ther. 148 (1965) pp. 100-105). The concentrations which are given in the table below are the concentrations in […] which 18 minutes after application leads to a prolongation of the functional refractory period to 125% or respectively to a reduction of the contraction force to 75% of the starting value. Furthermore the ratio between contraction force-reducing dose and functional refractory period-prolonging dose is given. This ratio is an indication of the therapeutic range of the antiarrhythmic effect on the isolated organ (see K. Greef, Verh. Dtsch. Ges. Kreislaufforsch. 35 (1969) pp. 88-97).

[3] = acute toxicity (LD50) in mice; assay type: in vivo; details: mouse, in vivo, male NMRI-mice, mortality on 7th day
Experimental: (§1) The acute toxicity of the compounds is determined in male NMRI-mice (body weight range 18-22 g) after oral (p.o.) and intraperitonal (i.p.) administration. The LD50 is defined as that dose in μmol/kg which causes a 50% mortality rate of the test animals on the 7th day after application. The calculation of the LD50 is carried out by probitanalysis (see L. Cavalli-Sforza, Grundbegriffe der Biometric, Gustav Fischer Verlag Stuttgart (1964)).

male NMRI-mice [4] = experiment: acute toxicity (LD50) in mice; assay type: in vivo; details: i.p., mortality on 7th day
Experimental: as §1

SMILES	Aconitin-Rat, ES (extrasystolic), Δ % [1]	Aconitin-Rat, KF (chamber flutter), Δ % [1]	Aconitin-Rat, VT (ventricular tachycardia), Δ % [1]	Min. Symptom-dose (male NMRI-mice [2])	ratio between contraction force-reducing dose and functional refractory period-prolonging dose (isolated left atria)	EC (FRP prolonged to 125%) (isolated left atria) [µM]	IC25 (isolated left atria) [µM]	LD50 at 168 h ([3]; ip, i.p., read-out: LD50 i.p.) [µmol/kg]	LD50 at 168 h ([3]; po, p.o., read-out: LD50 p.o.) [µmol/kg]	LD50 i.p. (male NMRI-mice [4]) [µmol/kg]
CCCC[N+]12C(O)C(CC)C3CC1C1N(C)c4ccc(Br)cc4C14CC2C3C4O (stereo not shown) [Example 14.b, Nb-butyl-10-bromoisoajmalinium hydrogen tartrate]	+80%	+88%	+87%	20 µmol/kg	0.7	2	1.5	76	198	
CCCCCCCCCC[N+]12C(O)C(CC)C3CC1C1N(C)c4ccc(Br)cc4C14CC2C3C4O (stereo not shown) [Example 15.b, Nb-decyl-10-bromoisoajmalinium hydrogen tartrate]	n.s.	n.s.	n.s.	287 µmol/kg	4.6	24.8	113	72	> 1440	
CCC1C2CC3C4N(C)c5ccc(Br)cc5C45CC(C2C5O)[N+]3(Cc2ccccc2)C1O (stereo not shown) [Example 16.b, Nb-benzyl-10-bromoisoajmalinium hydrogen tartrate]	+36%	+31%	+30%	(*)	6.1	2.7	16.6	483	2280	
CCC1C2CC3C4N(C)c5ccc(Br)cc5C45CC(C2C5O)[N+]3(CCCN(CC)CC)C1O (stereo not shown) [Example 19.b, Nb-diethylaminopropyl-10-bromoisoajmalinium bishydrogen tartrate]	+220%	+158%	+180%	31 µmol/kg	0.5	4.4	2	122	686	
CCC1C2CC3C4N(C)c5ccc(Br)cc5C45CC(C2C5O)[N+]3(CC(O)c2ccccc2)C1O (stereo not shown) [Example 21, Nb-(2-hydroxy-2-phenylethyl)-10-bromoisoajmalinium hydrogen tartrate]	+89%	+72%	+92%		0.8	3.8	3.2	250	2180	
CCC1C2CC3C4N(C)c5ccc(Br)cc5C45CC(C2C5O)[N+]3(CC(O)CN2CCCCC2)C1O (stereo not shown) [Example 22, Nb-(2-hydroxy-3-(1-piperidinyl)propyl)-10-bromoisoajmalinium hydrogen tartrate]	+154%	+110%	+121%	72 µmol/kg		8.1	3.4		550	168
CCC[N+]12C(O)C(CC)C3CC1C1N(C)c4ccccc4C14CC2C3C4O (stereo not shown) [Neo-Gilurytmal, Nb -propyl ajmalinium hydrogen tartrate, reference compound]	+86%	+50%	+80%	12 µmol/kg		1.8	0.26			

Source: patent US4554274A, “Nb Quaternary derivatives of ajmaline and isoajmaline, methods and intermediate products in the manufacture of their derivatives and method of using same and pharmaceutical compositions thereof” (priority 1979, dated 1985)
